Laboratory results as given in ChEMBL document CHEMBL3044538, “QSAR Analysis of BABQ compounds via calculated molecular descriptors” (Med Chem Res, 2006).

Experiments:
[1] = test system: L1210; experiment: Cytotoxicity against Mus musculus (mouse) L1210 cells; assay type: functional
[2] = species on record: Rattus norvegicus; experiment: Toxicity in Rattus norvegicus (rat); assay type: organism-based; details: in vivo
[3] = test system: L1210; experiment: Antitumor activity against Mus musculus (mouse) L1210 cells xenografted in rat; assay type: functional
[4] = test system: B16; experiment: Antitumor activity against Mus musculus (mouse) B16 cells xenografted in rat; assay type: functional

| Compound | log(1/MIC) [1] | log(1/LD50) [2] | log(1/MIC) [3] | log(1/MIC) [4] |
| --- | --- | --- | --- | --- |
| CC1=C(C)C(=O)C(N2CCCC2)=CC1=O | -1.7 | – | – | – |
| CC1CN1C1=CC(=O)C(N2CC2C)=CC1=O (centres undefined) | – | 1.16 | – | – |
| COC1=C(N2CC2)C(=O)C(OC)=C(N2CC2)C1=O | 0.15 | – | – | – |
| O=C1C(F)=C(N2CC2)C(=O)C(F)=C1N1CC1 | -0.2 | – | – | – |
| COC1=C(N2CC2C)C(=O)C=C(N2CC2C)C1=O (centres undefined) | -0.5 | 1.4 | 1.47 | 2.27 |
| CC1=C(N2CC2C)C(=O)C(CCOC(N)=O)=C(N2CC2C)C1=O (centres undefined) | -0.1 | – | – | – |
| O=C1C=C(N2CC=CC2)C(=O)C=C1N1CC=CC1 | -1.6 | – | – | – |
| O=C1C(NCCO)=C(N2CC2)C(=O)C(NCCO)=C1N1CC1 | 0.42 | – | 3.39 | 3.94 |
| O=C1C=C(N2CCCC2)C(=O)C=C1N1CCCC1 | -1.6 | – | – | – |
| CNC1=C(N2CC2)C(=O)C(NC)=C(N2CC2)C1=O | 0.32 | – | 2.49 | 3.14 |
| COC(COC(N)=O)C1=C(N2CC2)C(=O)C(C)=C(N2CC2)C1=O (centres undefined) [CARBOQUONE] | – | 1.73 | – | – |
| CC1CN1C1=C(N2CCCC2)C(=O)C(N2CC2C)=C(N2CCCC2)C1=O (centres undefined) | -1.1 | – | – | – |
| CCC1=C(N2CC2)C(=O)C(Br)=C(N2CC2)C1=O | – | 1.39 | – | 2.6 |
| CC1=C(N2CC2)C(=O)C(Br)=C(N2CC2)C1=O | – | 1.44 | – | – |
| CCOC(=O)NC1=C(N2CC2C)C(=O)C(NC(=O)OCC)=C(N2CC2C)C1=O (centres undefined) | -1 | 0.69 | – | – |
| CC1CN1C1=C(Cl)C(=O)C(N2CC2C)=C(Cl)C1=O (centres undefined) | -0.6 | – | 1.16 | – |
| O=C1C(Br)=C(N2CC2)C(=O)C(Br)=C1N1CC1 | 0.35 | – | – | – |
| CC1CN1C1=C(Br)C(=O)C(N2CC2C)=C(Br)C1=O (centres undefined) | 0.77 | – | – | – |
| CCC1=C(N2CC2)C(=O)C(C)=C(N2CC2)C1=O | -0.3 | 1.46 | – | – |

| Compound | log(1/MIC) [1] | log(1/LD50) [2] | log(1/MIC) [3] | log(1/MIC) [4] |
| --- | --- | --- | --- | --- |
| O=C1C=C(N2CC2)C(=O)C=C1N1CC1 | – | 1.8 | – | – |
| CC1=C(N2CC2)C(=O)C(CCO)=C(N2CC2)C1=O | – | 1.39 | – | 3.6 |
| NC(=O)OCCC1=C(N2CC2)C(=O)C(Br)=C(N2CC2)C1=O | – | 1.05 | 2 | – |
| CC1CN1C1=CC(=O)C(N2CC2C)=C(F)C1=O (centres undefined) | 1.49 | 1.5 | – | – |
| COC1=C(C)C(=O)C(N2CCCC2)=CC1=O | -1.6 | – | – | – |
| CCOC(=O)NC1=CC(=O)C(NC(=O)OCC)=CC1=O | 0.09 | – | – | – |
| O=C1C(Cl)=C(N2CC2)C(=O)C(Cl)=C1N1CC1 | -0.3 | – | – | – |
| CC1=C(N2CC2C)C(=O)C(Br)=C(N2CC2C)C1=O (centres undefined) | – | 1.59 | – | – |
| CN(CCO)C1=C(N2CC2)C(=O)C(N(C)CCO)=C(N2CC2)C1=O | 0.09 | – | – | – |
| CC1CN1C1=C(F)C(=O)C(N2CC2C)=C(N2CC2C)C1=O (centres undefined) | – | 1.45 | – | – |
| O=C1C(F)=C(N2CC2)C(=O)C(N2CC2)=C1N1CC1 | – | 1.62 | – | – |
| CNC1=C(N2CC2C)C(=O)C(NC)=C(N2CC2C)C1=O (centres undefined) | -0.3 | – | 2.19 | 2.33 |
| O=C1C(N2CC2)=C(N2CC2)C(=O)C(N2CC2)=C1N1CC1 | 0.9 | – | – | – |
| CC1=C(C)C(=O)C(N2CC=CC2)=CC1=O | -0.7 | – | – | – |
| CC1=C(N2C(C)C2C)C(=O)C(Br)=C(N2C(C)C2C)C1=O (centres undefined) | -0.1 | 0.63 | 0.69 | – |
| CC1=C(N2CC2)C(=O)C(CCOC(N)=O)=C(N2CC2)C1=O | – | 1.99 | – | – |
| O=C1C=C(N2CC2)C(=O)C(N2CC2)=C1N1CC1 [TRIAZIQUONE] | – | 2.66 | – | 3.8 |
| CCOC(=O)NC1=C(N2CC2)C(=O)C(NC(=O)OCC)=C(N2CC2)C1=O [DIAZIQUONE] | -0.5 | 1.54 | – | – |
| O=C1C(N2CCCC2)=C(N2CC2)C(=O)C(N2CCCC2)=C1N1CC1 | -0.3 | – | – | 2.4 |
